Results: paper PMC12848680, “Microbial Cross-Talk: Unlocking the Cytochalasin Diversity from a Termite-Associated Xylaria” (JACS Au, 2025)
Values after ≈ are worked out from the molar mass of the structure shown. Where two headings read alike, the source gives them in different places.

What was measured:
[1] = tested on: CHO-K1 (chinese hamster ovary cells); assay: Cytotoxicity assay (MTT, 5 d) on CHO-K1; type: cell-based; details: Cricetulus griseus, CHO-K1, 120 h
Procedure: (§1) Cytotoxicity assay: A549 (human lung carcinoma cell line; ACC 107) and CHO-K1 (chinese hamster ovary cells; ACC 110) were obtained from the German Collection of Microorganisms and Cell Cultures (DSMZ) and cultured under the conditions recommended by the depositor. Cells were propagated in Dulbeccos’s Modified Eagle’s Medium (DMEM) and Ham’s F12 medium, respectively, supplemented with 10% fetal bovine serum (FBS), and seeded at 6×10^3 cells per well of 96-well plates in 120 μL of complete medium. After 2 h of equilibration (37 °C, 5% CO2), the cells were treated with a serial dilution of cytochalasins in 60 µL growth medium. Cytochalasins, doxorubicin as reference, as well as the solvent control were tested as duplicates in two independent experiments. After 5 d of incubation (37 °C, 5% CO2), a total of 20 μL of 5 mg/ml MTT (thiazolyl blue tetrazolium bromide) in phosphate -buffered saline (PBS) were added to each well […]
(§2) and the cells were further incubated for 2 h at 37 °C before the supernatant was discarded.
(§3) Subsequently, the cells were washed with 100 μL of PBS and treated with 100 μl of 2-propanol/10 N HCl (250:1) to dissolve formazan granules. Cell viability was measured as percentage relative to the respective solvent control by measuring the absorbance at 570 nm using a microplate reader (Tecan Infinite M200Pro). GraphPad Prism (version 10.0.3, GraphPad, Boston, MA, USA) was used for sigmoidal curve fitting to determine the IC50 values.

[2] = tested on: A549 (human lung carcinoma cell line); assay: Cytotoxicity assay (MTT, 5 d) on A549; type: cell-based; details: for IC50: Homo sapiens, A549, 120 h, MTT, 5 d incubation; for Cytotoxic activity against A549 (in words): positive control doxorubicin
Procedure: as §1, §2, §3

in vitro [3] = type: in vitro ADME, mouse; details: for microsomal CLint: C57BL/6, mouse, microsomes; for half-life: mouse, read-out: Mouse liver microsome t1/2; for half-life / Mouse liver microsome t1/2: 1 μM compound, 0.5 mg/mL pooled C57BL/6 microsomes
Procedure: Assays in liver microsomes: For metabolic stability, the compound (1 μM) was incubated with 0.5 mg/mL pooled mouse (C57BL/6) microsomes (Xenotech, Kansas City, USA), 2 mM NADPH, 10 mM MgCl2 at 37 °C for 120 min on a microplate shaker. The metabolic stability of testosterone, verapamil and ketoconazole were determined in parallel to confirm the enzymatic activity of mouse/rat liver microsomes. The incubation was stopped after defined time points by precipitation of aliquots of the incubation mixture with 2 volumes of cold internal standard solution (15 nM diphenhydramine in 10% methanol/acetonitrile). Samples were stored on ice until the end of the incubation and precipitated protein was removed by centrifugation (15 min, 4 °C, and 4,000 g). Concentration of the remaining test compound at the different time points was analyzed by HPLC-MS/MS (Vanquish Flex coupled to a TSQ Altis Plus, Thermo Fisher, Dreieich, Germany) and used to determine half-life (t1/2). […]

in vitro [4] = type: in vitro ADME, mouse; details: for half-life at 1 μM: 1 μM compound, pooled CD-1 mouse plasma, read-out: Mouse plasma t1/2
Procedure: Plasma stability assays: To determine stability in plasma, the compound (1 μM) was incubated with pooled CD-1 mouse plasma (Neo Biotech, Nanterre, France). Samples were taken by mixing aliquots with 4 volumes of cold internal standard solution (12.5 nM diphenhydramine in 10% methanol/acetonitrile). The plasma stability of procain, propantheline and diltiazem were determined in parallel to confirm the enzymatic activity. Samples were stored on ice until the end of the incubation and precipitated protein was removed by centrifugation (15 min, 4 °C, 4,000 g, two centrifugation steps). Concentration of the remaining test compound at the different time points was analyzed by HPLC-MS/MS (Vanquish Flex coupled to a TSQ Altis Plus, Thermo Fisher, Dreieich, Germany). […]

E. coli ΔacrB (JW0451-2) = assay: Antibacterial activity against E. coli ΔacrB; type: cell-based; details: Escherichia coli, read-out: E. coli ΔacrB (JW0451-2) MIC
[5] = tested on: Staphylococcus aureus Newman; assay: Antibacterial activity against S. aureus Newman; type: cell-based; details: Table S22
[6] = Table S22, intrinsic clearance calculated from microsomal metabolism data
[7] = Table 1, intrinsic clearance from microsomal metabolism data

Row | SMILES | IC50 ([1]; Table S22, 5 d incubation) [µg/mL] | IC50 ([2]; Table S22) [µg/mL] | microsomal CLint (in vitro [3]; [6]) [µL/min/mg] | half-life (in vitro [3]; Table S22) [min] | half-life at 1 μM (in vitro [4]; Table S22) [min] | MIC (E. coli ΔacrB (JW0451-2)) [µg/mL] | MIC [5] [µg/mL] | IC50 ([1]; Table 1, 5 d incubation) [µg/mL] | IC50 ([2]; Table 1) [µg/mL] | microsomal CLint (in vitro [3]; [7]) [µL/min/mg] | Mouse liver microsome t1/2 (in vitro [3]; Table S22) [min] | half-life (in vitro [3]; Table 1, 120 min) [min] | half-life at 1 μM (in vitro [4]; Table 1) [min] | Cytotoxic activity against A549 (in words) [2] | Compound remaining in mouse plasma (in vitro [4]; Table 1, at 240 min) [%] | Compound remaining in mouse plasma (in vitro [4]; Table S22, at 4 h)
1 | CC1CC=CC2C3OC3(C)C(C)C3C(Cc4ccccc4)NC(=O)C23C(O)C2OC2C(C)(O)C1=O (centres unmarked) [Compound 7, deacetyl-19,20-epoxycytochalasin Q] | 3.78 ± 0.3 (≈ 7.85 µM) | 2.56 ± 0.94 (≈ 5.32 µM) | 14 ± 3 | 102 ± 24 | > 240 | > 64 | > 64 |  |  |  |  |  |  |  |  | 
2 | CC(=O)OC1C2OC2C(C)(O)C(=O)C(C)CC=CC2C(O)C3(C)OC3(C)C3C(Cc4ccccc4)NC(=O)C213 (centres unmarked) [Compound 27, 19,20-epoxycytochalasin N] |  |  |  |  |  | > 64 | > 64 | 10.6 ± 1.42 (≈ 19.6 µM) | 0.84 ± 0.04 (≈ 1.56 µM) | < 11.6 | >120 | > 120 | 133 ± 9 |  |  | 
3 | CC(=O)OC1C2OC2C(C)C(=O)C(C)CC=CC2C(O)C(C)=C(C)C3C(Cc4ccccc4)NC(=O)C213 (centres unmarked) [Compound 5, 18-desoxy-19,20-epoxycytochalasin C] |  |  |  |  |  | > 64 | > 64 | 9.88 ± 7.69 (≈ 19.5 µM) | 0.87 ± 1.38 (≈ 1.71 µM) | 132 ± 38 |  | 11 ± 3 | > 240 | comparable to the positive control | 74 ± 5 | >240 (74 ± 5% at 4 h)
4 | CC(=O)OC1C2OC2C(C)(O)C(=O)C(C)CC=CC2C(O)C(C)=C(C)C3C(CC(=O)O)NC(=O)C213 (centres unmarked) [Compound 22, xylachalasin A] |  |  | < 11.6 |  |  | > 64 | > 64 | > 37 | > 37 |  | >120 | > 120 | > 240 |  |  | 
5 | CC(=O)OC1C2OC2C(C)(O)C(=O)C(C)CC=CC2C3OC3(C)C(C)C3C(Cc4cccc(Br)c4)NC(=O)C213 (centres unmarked) [Compound 18, m-bromo-19,20-epoxycytochalasin Q] |  | 0.31 ± 0.01 (≈ 0.515 µM) |  |  |  | > 64 | > 64 | 0.94 ± 0.21 (≈ 1.56 µM) | 0.19 ± 0.01 (≈ 0.315 µM) | 77 ± 19 |  | 19 ± 4 | > 240 |  |  | 
6 | CC1CC=CC2C3OC3(C)C(C)C3C(Cc4ccccc4)NC(=O)C23C(O)C2OC2C(C)C1=O (centres unmarked) [Compound 1, deacetyl-18-desoxy-19,20-epoxycytochalasin Q] | 1.21 ± 0.31 (≈ 2.6 µM) | 0.32 ± 0.1 (≈ 0.687 µM) | 102 ± 13 | 13.8 ± 1.8 | > 240 | > 64 | > 64 |  |  |  |  |  |  |  |  | 
7 | CC1CC=CC2C3OC3(C)C(C)C3C(Cc4cccc(Br)c4)NC(=O)C23C(O)C2OC2C(C)(O)C1=O (centres unmarked) [Compound 19, m-bromo-deacetyl-19,20-epoxycytochalasin Q] | 0.63 ± 0.24 (≈ 1.12 µM) | > 37 | 60 ± 4 | 23.1 ± 1.5 | > 240 | > 64 | > 64 |  |  |  |  |  |  |  |  | 
8 | CC(=O)OC1C2OC2C(C)(O)C(=O)C(C)CC=CC2C3OC3(C)C(C)C3C(Cc4ccccc4)NC(=O)C213 (centres unmarked) [Compound 6, 19,20-epoxycytochalasin Q] | 0.72 ± 0.3 (≈ 1.38 µM) | 0.14 ± 0.02 (≈ 0.267 µM) | 97 ± 24 | 15 ± 4 | > 240 | > 64 | > 64 |  |  |  |  |  |  |  |  | 
9 | CC1=C(C)C2C(Cc3cccc(Br)c3)NC(=O)C23C(O)C2OC2C(C)(O)C(=O)C(C)CC=CC3C1O (centres unmarked) [Compound 17, m-bromo-deacetyl-19,20-epoxycytochalasin C] |  | 0.19 ± 0.02 (≈ 0.339 µM) |  |  |  | > 64 | > 64 | 0.49 ± 0.12 (≈ 0.874 µM) | 0.14 ± 0.02 (≈ 0.25 µM) | 43 ± 4 |  | 32 ± 3 | > 240 | lower nanomolar activities |  | 
